Entries after “also recorded” stand apart in the source; their conditions may differ. Counter-ions that a name gives are not always drawn.
How the values were obtained:
[1] = Chemical stability of DMF nano suspension (HPLC); type: physicochemical; details: Day 1, room temperature
Method: 5.0 ml of pH5.0 phosphate buffer (Fisher Scientific, Lot No. 100498) were added to the tube. Further, ZrO2 beads (˜10 ml) were also added to the tube. The sample was vortexed in a Fisher Scientific multi-tube vortexer at 2500 rpm for 60 min and the particle size was checked via optical microscopic image. An additional 5.0 ml of pH5 phosphate buffer was added and the sample was further milled overnight. The temperature of the sample was ˜60° C. due to the overnight milling. The particle size was determined via microscopic image and Mastersizer 2000.
The suspension was stored at room temperature and samples were taken at day 1 and day 7. The stability of the samples was examined using HPLC method for chemical stability, PSD and microscopic image (data not provided) for physical stability.

[2] = test system: prototypical Nrf2 response genes (Akr1b8, Gclc, Hmox1, Nqo1, Txnrd1, Osgin1); experiment: qRT-PCR of Nrf2 response genes in tissues after DMF PO or IV; type: in vivo, Sprague-Dawley rats; details: for Nrf2 genes significantly modulated, forebrain / Nrf2 genes significantly modulated, jejunum / Nrf2 genes significantly modulated, kidney / Nrf2 genes significantly modulated, cerebellum / Nrf2 genes significantly modulated, spleen: 2 and 6 hours, vs vehicle
Method: On Day 5 of the study 3 time points were evaluated: 10 minutes, 2 hours, and 6 hours after dosing, as illustrated in the timeline. At each time point, 5 animals from each group were sacrificed. At the 2 and 6 hour time points, the tissue samples from groups E, F, I, and J from each animal were split, with half of the tissue being processed for MMF exposure, and half processed for qRT-PCR. Note vehicle groups (C, D, G, and H) were not processed for MMF measurement and only used for qRT-PCR.
Two and 6 hours after dosing, cohorts of animals from Groups C, D, E and F and G, H, I and J, respectively, were sacrificed and tissues (forebrain, cerebellum, jejunum, kidney, and spleen) were collected for RNA analysis by qRT-PCR for expression of prototypical Nrf2 response genes.
For RNA preparation, frozen tissues were placed in 2 mL RNAse-free 96-well blocks with 1.5 mL QIAzol Lysis Reagent (QIAgen) and a 3.2 mm stainless steel bead (BioSpec Products, Bartlesville, Okla.). Tissues were disrupted for four cycles of 45 seconds in a Mini-Beadbeater (Biospec Products). RNA was extracted in chloroform and the aqueous phase was mixed with an equal volume of 70% ethanol. Extracted RNA was applied to RNeasy 96 plates and purified by the spin method according to the manufacturer's protocol (RNeasy 96 Universal Tissue Protocol, QIAgen, Hilden Germany).
Samples were reverse-transcribed into cDNA according to the manufacturer's protocols (Life Technologies, Carlsbad, Calif.) and analyzed by real-time polymerase chain reaction (qPCR). Rat target gene primers and 6-FAM™ dye-labeled TaqMan® MGB™ probes (Life Technologies) were used. Reactions containing 100 ng of cDNA, 900 nM of each primer, and 250 nM TaqMan probes were cycled on a QuantStudio 12 k-flex system (Life Technologies) once for 10 minutes at 95° C., followed by 40 cycles of 95° C. for 10 seconds and 60° C. for 1 minute. All samples were measured in triplicate with Gapdh as a normalizing gene. Taqman primer/probe sets from Life Technologies included: Akr1b8 (Rn00756513_m1); Gclc (Rn00689046_m1); Hmox1 (Rn01536933_m1); Nqo1 (Rn00566528_m1); Txnrd1 (Rn01503798_m1); Osgin1 (Rn00593303_m1) and Gapdh (Rn01775763_g1). Final analysis was performed using the comparative CT method to calculate fold changes and samples were normalized relative to vehicle controls at each time point. In all graphs, the mean fold-change (±standard deviation) is depicted.

[3] = MMF exposure in malonate model 30 min after last oral dose of DMF; type: in vivo, Sprague-Dawley rats; details: 30 minutes after last oral dose of DMF, all doses
Method: The study and blank brain samples was transferred into Tissue Tubes (TT1) (purchased from Covaris, Inc) and attached to a borosilicate glass tube and placed on dry ice for a minimum of 15 minutes. The samples were pulverized using the Cryoprep System (Covaris Inc.) and transferred to glass tube prior to homogenization. For every 1 part (i.e. 100 mg) of tissue, 2 parts (i.e. 200 μL) of water with 15 mg/mL NaF was added to each glass tube. The tissues were homogenized at 4° C. using Covaris E210 for approximately 3 minutes per sample. The Covaris settings were as follows: Duty Cycle 20%, Intensity 10, and Cycles/Burst 1000. After homogenization […] acetonitrile was added to each glass tube, which was equal to the volume of water added in previously. The homogenates were homogenized with the E210 for an additional 30 sec per sample. […]
Study plasma samples were on ice. […] A 50 μL aliquot of sample (study samples, blank control, calibration standard or QC sample) was manually transferred into a 96-well plate according to a pre-determined layout. […]
The HPLC system used consisted of an Agilent 1200 binary pump with a Leap CTC PAL refrigerated autosampler. […] The instrument was equipped with TIS source in negative mode and the analyte was monitored in the MRM mode. […] The concentrations for unknown samples were calculated against Standards. […]

## COC(=O)/C=C/C(=O)OC [DMF, dimethyl fumarate]
[1]
  Area % of DMF remaining: 99.9 area %
[2]; DMF IV 30 mg/kg
  Nrf2 genes significantly modulated, forebrain: significant modulation of Nqo1, Osgin1, Akr1b8, and Hmox1 at both 2 and 6 hours
  Nrf2 genes significantly modulated, jejunum: significant increases were observed for Nqo1 and Hmox1 at 6 hours, and in Osgin1 expression at 2 hours
  Nrf2 genes significantly modulated, kidney: significant modulation of Nqo1 and Txnrd1 at 2 and 6 hours, and Hmox1 only at 2 hours
[2]; DMF IV 30 mg/kg, 30 mg/kg
  Nrf2 genes significantly modulated, cerebellum: significant modulation was observed for Nqo1, Osgin1, Akr1b8, and Hmox1 at both 2 and 6 hours; also recorded: significant increase in the transcriptional responses of Gclc and Txnrd1 in the cerebellum, but only at the later 6-hour time point
  Nrf2 genes significantly modulated, spleen: significant transcriptional increases were noted for Osgin1 at both 2 and 6 hour time points; also recorded: significant changes in Akr1b8 and Txnrd1 were observed only at the 2 hour time point; also recorded: A significant change in Nqo1 was also found 6 hours after DMF IV dosing
[2]; DMF PO 100 mg/kg or IV 30 mg/kg
  Hmox1 expression in spleen: No changes were observed
[2]; DMF PO 100 mg/kg
  Nrf2 genes significantly modulated, cerebellum: significant modulation of 3 genes in cerebellar tissue: Osgin1 at 2 and 6 hours, Akr1b8 at 2 hours, and Hmox1 at the 6 hour time point
  Nrf2 genes significantly modulated, forebrain: modulation of only two genes: Osgin1 at 2 and 6 hours and Akr1b8 only at 2 hours
  Nrf2 genes significantly modulated, spleen: significant increases in Nqo1, Osgin1, Akr1b8, Gclc, and Txnrd1 at both 2 and 6 hours
[2]; DMF PO 100 mg/kg, 100 mg/kg
  Nrf2 genes significantly modulated, jejunum: significant increases in Osgin1, Akr1b8, and Txnrd1 at both 2 and 6 hours; also recorded: Nqo1 expression was increased after PO DMF dosing only at the 6-hour time point; also recorded: significant increases in Gclc and Hmox1 were observed at the 2-hour time point
  Nrf2 genes significantly modulated, kidney: significant changes at both 2 and 6 hour time points for Nqo1, Hmox1, and Txnrd1; also recorded: Osgin1 was significantly modulated only at the 2 hour time point
[2]; forebrain, kidney and spleen, PO 100 mg/kg and IV 30 mg/kg
  Relationship of MMF exposure (10 minutes) and pharmacodynamic response (2 or 6 hours): clear positive correlation in MMF exposure and pharmacodynamic response
[3]
  MMF concentration in plasma, brain and CSF: significantly higher in the plasma as compared to both, the Brain and the CSF; also recorded: dose-dependent increase in plasma, CSF and brain concentration of MMF
